# Assay results published in a melting point compilation (Tetko et al.; mined from patent text by program, amines drawn as free bases though some values may be those of a salt).
row,melting point [°C],Compound
1,109 to 112,COc1ccc(C(=O)c2cccc3c2CCC3C#N)cc1 (stereo not drawn)
2,> 250,COc1cc2nc(N3CCN(c4nc5ccccc5o4)CC3)nc(N)c2cc1OC
3,90 to 91,COc1ccc(CN2C(=O)CC2CC(=O)O)c(OC)c1 (stereo not drawn)
4,258 to 260,O=C1CCC(N2Cc3c(OCC4COc5ccccc5C4)cccc3C2=O)C(=O)N1 (stereo not drawn)
5,136,O=C(Nc1nccs1)c1c(C(F)(F)F)nc(-c2cccs2)c(-c2ccccc2)c1O
6,> 260,COc1cc(OC)c(-c2ccc(C(=O)O)s2)cc1/C=C/C(=O)c1ccc(C(=O)O)cc1
7,149 to 153,Cc1ccc2c(c1)c1c(n2C(=O)c2ccccc2)CCCC1C(=O)O (stereo not drawn)
8,315 to 316,Oc1ccccc1CNNCc1ccccc1O
9,105 to 106,Fc1cc(OCc2ccccc2)cnc1-c1ccccc1
10,105 to 106,O=C(Cc1cc(O)no1)OC(c1ccccc1)c1ccccc1
11,228 to 230,c1ccc2c(c1)CCc1c(CN3CCN(c4cc5ccccc5cn4)CC3)n[nH]c1-2
12,160,O=C1Nc2ccc(I)cc2C1=NNC(=O)C1CCN(C(=O)c2ccccc2)CC1
13,225 to 230,O=C(O)c1cccnc1Oc1ccc(-c2nnn[nH]2)cc1
14,124 to 130,CCNC(=O)c1c(C2CC2)nc(CC)n1Cc1ccc2oc(-c3ccccc3NS(=O)(=O)C(F)(F)F)c(Br)c2c1
15,135,CO[C@@H]1CN(Cc2ccccc2)CC[C@H]1NC(=O)c1cccc(C(F)(F)F)c1 (relative stereo)
16,199 to 200,COc1cc(OC(=O)c2ccc(OC)c(C34CC5CC(CC(C5)C3)C4)c2)ccc1C(=O)O
17,142 to 145,CNC(=O)NCCn1c(-c2ccc(CN3CCOCC3)cc2)csc1=Nc1ccc(F)c(C)c1
18,82 to 83,CCOC(=O)C1=C(C)NC(C(OCC)OCC)=C(C(=O)OCC)C1c1ccccc1C(F)(F)F (stereo not drawn)
19,127 to 128,O=C(F)[C@@H]1C[C@H](F)CN1C(=O)OCC1c2ccccc2-c2ccccc21
20,169 to 171,O=C(O)C1CC(=O)N(Cc2ccccc2)C1c1ccccc1 (stereo not drawn)
21,140 to 143,COC(=O)c1ccccc1S(=O)(=O)NCC(=O)N[C@@H](Cc1ccccc1)C(=O)O
22,153 to 155,CCCCc1nc2cccc(C(=O)OC)c2n1Cc1ccc(-c2ccccc2-c2nnn[nH]2)cc1

row,melting point [°C],Compound
1,124 to 125,COC(=O)ON(C(N)=O)C(C)c1cc2ccccc2s1 (stereo not drawn)
2,207 to 208,CCc1nc(=O)c2ccccc2n1Cc1ccc(-c2ccccc2C#N)cc1
3,125 to 127,CCCc1nc2c(N)nc(C)c(C)c2n1CCCO/N=C(\C)c1ccccc1
4,184 to 186,COc1ccc(Nc2ncnc(NCc3ccco3)n2)cc1
5,216 to 218,O=C1NC(=O)C(c2ccc(-c3ccccc3)o2)O1 (stereo not drawn)
6,98 to 99,COc1cccc(C=O)c1OCc1cccc2ccccc12
7,78 to 83,CCc1oc2ccccc2c1C(=O)c1ccc(OCCO)cc1
8,198 to 200,Cc1cccc(-c2ccc(C(=O)O)cc2)c1
9,260 to 261,COC(=O)c1ccc(C(=O)NCCCCNC(=O)c2ccc(C(=O)OC)cc2)cc1
10,133 to 135,O=C(N1CCN(Cc2ccccc2)CC1)N1CC(Oc2ccc(Br)cc2)C1
11,75 to 77,CCOC(=O)Cc1ccc(Cc2nc3c(F)c(F)cc(F)c3s2)cc1
12,152,COc1nc(NC(=O)NS(=O)(=O)c2csc3ccccc23)nc(OC)n1
13,226 to 227,CC1(C)CCC(C)(C)c2cc(NC(=O)c3ccc(C=CC(=O)O)cc3)ccc21
14,162 to 165,COCCOc1ccc2sc(C(=O)Nc3ccccc3N)cc2c1
15,86,CCOC(=O)C(C)Oc1ccc(Oc2nc3ccccc3cc2Cl)cc1 (stereo not drawn)
16,104 to 106,CCOc1cccc(C(O)c2ncccc2OC)c1 (stereo not drawn)
17,128 to 131,CNCc1cc2cc(Nc3nc(N)n(C(=O)c4cccc(C)c4)n3)ccc2o1
18,197,O=C(O)COc1cccc2c1CCC(CCn1cnc(-c3ccccc3)c1-c1ccccc1)C2 (stereo not drawn)
19,67 to 69,COC(=O)CCC(=NOCc1ccc(OCc2nc(-c3ccco3)oc2C)c(OC)c1)c1ccccc1
20,176 to 178,Cc1cc(CC(=O)O)n(C)c1C(=O)c1ccc(F)cc1
21,285 to 286,O=c1c(-c2ccc(NS(=O)(=O)c3ccccc3)cc2)coc2cc(O)c(O)cc12
22,> 300,O=C1NC(=O)c2ccccc2/C1=C/Nc1ccc2cn[nH]c2c1

# Continued, molecule first:
row,Compound,melting point [°C]
1,COc1ccc(N2CCN(c3c(C)c(C)c4c(c3C)C(C(C)(C)C)C(C)(C)O4)CC2)cc1 (stereo not drawn),144 to 146
2,CN1CCN(c2ccccc2C(O)C2SCCNC2=O)CC1 (stereo not drawn),137 to 139
3,O=[N+]([O-])c1nccn1C1CCCCC1O (stereo not drawn),141
4,CCc1cc2c(s1)N(C(=O)NCCN(C)C)CCN=C2c1ccccc1Cl,160 to 162
5,CCC(=O)OC1(c2ccccc2)CCN(CCN2CNC(=O)c3ccccc32)CC1,141 to 144
6,CCOCC(=O)Nc1ccc(OC(=O)NC)cc1C,118 to 121
7,CC1(C)CC(=O)Nc2ccc([N+](=O)[O-])cc21,202 to 204
8,C#Cc1cc2nc(O)c(O)nc2cc1[N+](=O)[O-],> 300
9,CS(=O)(=O)N[C@H]1CC[C@H](Nc2nccc(-n3ncc4ccccc43)n2)CC1,270
10,O=P(O)(O)CNC1CCCCC1,279 to 284
11,O=C(CBr)c1ccc(OCC(=O)N2CCOCC2)cc1,105 to 107
12,CCOC(=O)OC1=C(c2c(C)cc(C)cc2C)C(=O)N(N(C)C)C12CCN(N(C)C)CC2,105
13,O=C(NC1CCCC1)c1ccc(F)c2c1CC(N(CCCc1c[nH]c3ccc(F)cc13)C1CCC1)CO2 (stereo not drawn),133
14,CC(=O)N(C)N(C(=O)OC(C)(C)C)c1ccc(CO)cc1,122 to 123
15,Fc1ccccc1CSc1nc2cnccc2[nH]1,186 to 188
16,CCn1nc(C#N)c(=O)c2ccccc21,216 to 218
17,CC1=NC(NC(=O)Nc2cccc(C)n2)C(=O)N(CC(=O)N2CC3CCC(CC3)C2)c2c(C)cccc21 (stereo not drawn),151 to 152
18,CN1CCN(C(=S)C2(c3ccccn3)CCCS2)CC1 (stereo not drawn),124
19,Cc1nc(N2CCN(Cc3ccc(F)cc3)C2=O)sc1C(N)=O,201 to 203
20,O=S(=O)(c1[nH]c(-c2ccc(Cl)cc2)c(Br)c1Br)C(F)(F)F,165 to 168

row,Compound,melting point [°C]
1,COC(=O)c1cc(C=O)c(C(F)(F)F)cc1NC(C)=O,106 to 108
2,N#CSCC(Br)=C(Br)CBr,89 to 91
3,CNc1nc(NC)c2ncn(COC(COC(=O)C(C)C)COC(=O)C(C)C)c2n1,122 to 123
4,CC1(C)CC(=O)Nc2ccc(-c3cccc(Cl)c3)cc21,211 to 215
5,CN1CCN(C(=O)N2CC(Oc3ccc(Br)cc3)C2)CC1,91 to 95
6,CC(C)OC(=O)C1CCCN1S(=O)(=O)c1ccc(N2CCC(NCC(O)c3ccc(O)c(NS(C)(=O)=O)c3)CC2)cc1 (stereo not drawn),52 to 58
7,CCCOC(=O)c1sccc1S(N)(=O)=O,79
8,OCCN1CC=C(c2c[nH]c3ccccc23)CC1,164 to 165
9,CC1(C)CCC(C)(C)c2cc(C(O)COc3ccc(CO)c(O)c3)ccc21 (stereo not drawn),110 to 115
10,Cc1nc(-c2ccc(OC(F)(F)F)cc2)sc1C(=O)O,179 to 181
11,COc1cc(C)c(C(O)c2c(C(F)(F)F)cnc(Cl)c2Cl)c(OC)c1OC (stereo not drawn),95 to 98
12,CCNC(=O)C1CC(n2cnc3c(NC(CC)Cc4ccc(Cl)s4)ccnc32)C(O)C1O (stereo not drawn),77 to 85
13,OC1CSC(Oc2ccc(-n3ccnc3)cc2)C(O)C1O (stereo not drawn),180
14,Nc1nc(N)nc(CCC(Cl)(Cl)Cl)n1,187 to 188
15,CCCCC(CC)COC(=O)C(C#N)=Cc1ccc(NC(C)=O)cc1 (stereo not drawn),119
16,CCCC1C(=O)N(S(=O)(=O)c2ccc3ccccc3c2)C2CCN(C(=O)CN3CCCCC3)C12 (stereo not drawn),161 to 163
17,CCCCOc1nc(NC2=CCC(=C=C3CC4CCC3(C)C4(C)C)C=C2)nc(NC2=CCC(=C=C3CC4CCC3(C)C4(C)C)C=C2)n1,181
18,CN1Cc2c(C(=O)OCC3CC3)ncn2-c2cccc(Cl)c2C1=O,194 to 195
19,N#Cc1ccc(CCC(=O)C2CC2)cc1,76
20,CCC(C=O)c1ccc(S(=O)(=O)NC)cc1 (stereo not drawn),202 to 204

row,Compound,melting point [°C]
1,COc1cc(Cc2ccccc2)c(O)c2c1C(C)(C)CCC2(C)C,80
2,COc1ccc(/C=C/S(=O)(=O)Nc2ccc(F)cc2)cc1,115 to 117
3,O=c1c2ccccc2[nH]c2ccc(O)c(Cl)c12,184 to 191
4,O=C=NC(=O)CS(=O)(=O)c1ccc(Cl)cc1,58 to 60
5,O=[N+]([O-])c1cc(Cn2ccnc2)ccc1NC1CCCCC1,121
6,CNC(=O)NCCSCc1[nH]cnc1C,158 to 159
7,NC(=O)Nc1cccc2c1C(=O)c1c-2n[nH]c1-c1cccs1,214
8,CSc1ccc(CC2=C(O)CSC2=O)cc1,206 to 208
9,Cc1cccc2[nH]c(C=O)cc12,147 to 149
10,CC1(C)OC(=O)Nc2c(O)cc(-c3cc(F)cc(C#N)c3)cc21,197 to 198
11,O=[N+]([O-])c1cn2c(n1)O[C@@H](COc1ccc(N3CCC(CCc4ccc(OC(F)(F)F)cc4)CC3)cc1)C2,209 to 212
12,CCCCC(=O)c1[nH]c(=O)[nH]c1C,222 to 224
13,CCCc1c(O)c(C(C)=O)cc2c(C)cc(C(=O)OCC)nc12,150 to 151
14,CCOC(=O)c1cn(-c2c(F)cc(F)cc2F)c2nc(Cl)c(F)cc2c1=O,158 to 160
15,C=CCOc1ccccc1OCCOS(C)(=O)=O,61 to 63
16,OCCCCCCCCCCCCCCCCCCCCCCC(F)(F)C(F)(F)C(F)(F)C(F)(F)F,69 to 71
17,CC(C)NCC(O)COc1ccc(NC(=O)N(C)C)cc1 (stereo not drawn),138 to 139
18,CC(=O)SCC(C)C(=O)N(CC(=O)O)Cc1ccco1 (stereo not drawn),140 to 141
19,CC[C@H](C)[C@H](NC(=O)NCCC1CCCCC1)C(=O)N[C@H](CO)Cc1c[nH]c2ccccc12,182 to 184
